Patent US9751888B2, “Heterocyclic compounds and uses thereof” (Infinity Pharmaceuticals, Inc., priority 2013, dated 2017)

Tests used:
[1] = target: human Class I PI3 kinase α (Homo sapiens (Human), UniProt P42336); assay: PI3-Kinase Promega ADP-Glo Max assay, α isoform; type: biochemical; settings: 20 nM kinase, 3 mM ATP, 500 uM diC8-PtdInsP; read-out: Promega α PI3K IC50
Description: (§1) Promega ADP-Glo Max assay kit (Cat. No. V7002) was utilized to determine IC50 values for α, β, δ and γ isoforms of human Class I PI3 kinases (Millipore). […] Reactions were incubated at room temperature for 2 hours followed by addition of 25 uL of stop solution. After a 40-minute incubation at room temperature, 50 uL of Promega detection mix was added followed by incubation for 1 hour at room temperature. Plates were then read on Envision plate reader in luminescence mode. Data was converted to % inhibition using the following equation below: [formula] where S is the sample luminescence, Pos is a positive control without added PI3K, Neg is the negative control without added compound. Data was then plotted as % inhibition vs compound concentration.

[2] = target: human Class I PI3 kinase β (Homo sapiens (Human), UniProt P42338); assay: PI3-Kinase Promega ADP-Glo Max assay, β isoform; type: biochemical; settings: 40 nM kinase, 3 mM ATP, 500 uM diC8-PtdInsP; read-out: Promega β PI3K IC50
Sequence of human Class I PI3 kinase β (P42338 whole entry, looked up, canonical isoform): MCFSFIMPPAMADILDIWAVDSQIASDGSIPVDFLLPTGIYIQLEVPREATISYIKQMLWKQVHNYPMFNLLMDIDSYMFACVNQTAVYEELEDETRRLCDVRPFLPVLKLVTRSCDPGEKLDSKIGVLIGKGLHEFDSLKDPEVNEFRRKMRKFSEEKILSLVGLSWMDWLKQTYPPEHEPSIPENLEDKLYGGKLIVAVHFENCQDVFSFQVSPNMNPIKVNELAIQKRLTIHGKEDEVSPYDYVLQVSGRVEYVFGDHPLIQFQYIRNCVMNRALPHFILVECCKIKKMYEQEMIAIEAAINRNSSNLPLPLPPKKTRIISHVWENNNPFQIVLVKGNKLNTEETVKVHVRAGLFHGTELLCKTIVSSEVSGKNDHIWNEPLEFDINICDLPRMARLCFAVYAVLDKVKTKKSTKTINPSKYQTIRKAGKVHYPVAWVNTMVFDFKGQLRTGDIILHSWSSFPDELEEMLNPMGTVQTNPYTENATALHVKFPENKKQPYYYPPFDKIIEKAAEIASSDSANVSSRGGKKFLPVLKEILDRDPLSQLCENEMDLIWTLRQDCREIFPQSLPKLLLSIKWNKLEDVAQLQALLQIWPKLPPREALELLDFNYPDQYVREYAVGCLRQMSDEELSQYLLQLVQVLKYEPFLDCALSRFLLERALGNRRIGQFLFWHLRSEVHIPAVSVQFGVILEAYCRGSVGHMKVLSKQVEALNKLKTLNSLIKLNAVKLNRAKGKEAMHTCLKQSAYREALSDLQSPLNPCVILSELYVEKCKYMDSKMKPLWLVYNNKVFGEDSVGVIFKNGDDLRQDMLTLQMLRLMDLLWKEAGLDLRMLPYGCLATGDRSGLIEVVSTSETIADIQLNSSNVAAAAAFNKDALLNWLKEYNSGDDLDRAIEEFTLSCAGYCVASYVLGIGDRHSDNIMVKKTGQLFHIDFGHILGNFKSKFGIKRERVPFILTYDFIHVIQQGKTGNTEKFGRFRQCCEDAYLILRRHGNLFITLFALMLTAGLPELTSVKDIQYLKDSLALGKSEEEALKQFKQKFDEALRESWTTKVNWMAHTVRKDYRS
Sequence of human Class I PI3 kinase β (P27986 whole entry partner, looked up, canonical isoform): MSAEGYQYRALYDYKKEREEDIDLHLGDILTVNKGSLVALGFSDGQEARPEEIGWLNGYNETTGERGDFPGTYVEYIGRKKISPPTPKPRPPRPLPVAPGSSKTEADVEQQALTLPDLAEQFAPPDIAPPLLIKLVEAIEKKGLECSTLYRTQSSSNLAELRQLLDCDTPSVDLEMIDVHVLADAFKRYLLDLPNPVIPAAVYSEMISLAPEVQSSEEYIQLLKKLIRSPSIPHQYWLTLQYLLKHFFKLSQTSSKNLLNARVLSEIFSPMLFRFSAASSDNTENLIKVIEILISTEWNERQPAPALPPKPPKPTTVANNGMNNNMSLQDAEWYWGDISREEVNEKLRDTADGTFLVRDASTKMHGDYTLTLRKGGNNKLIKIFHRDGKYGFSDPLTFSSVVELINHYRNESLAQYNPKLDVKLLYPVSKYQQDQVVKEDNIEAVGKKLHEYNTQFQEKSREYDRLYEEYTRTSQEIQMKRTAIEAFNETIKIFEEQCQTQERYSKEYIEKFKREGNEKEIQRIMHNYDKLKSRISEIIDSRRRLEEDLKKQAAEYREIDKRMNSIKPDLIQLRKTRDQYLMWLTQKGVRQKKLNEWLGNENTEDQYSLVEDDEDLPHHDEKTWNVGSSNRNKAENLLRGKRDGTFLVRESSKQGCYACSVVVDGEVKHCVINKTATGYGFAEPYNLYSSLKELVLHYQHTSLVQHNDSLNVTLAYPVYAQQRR
Description: Promega ADP-Glo Max assay kit (Cat. No. V7002) was utilized to determine IC50 values for α, β, δ and γ isoforms of human Class I PI3 kinases (Millipore). […] Reactions were incubated at room temperature for 2 hours followed by addition of 25 uL of stop solution. After a 40-minute incubation at room temperature, 50 uL of Promega detection mix was added followed by incubation for 1 hour at room temperature. Plates were then read on Envision plate reader in luminescence mode. Data was converted to % inhibition using the following equation below:

[3] = target: human Class I PI3 kinase δ (Homo sapiens (Human), UniProt O00329); assay: PI3-Kinase Promega ADP-Glo Max assay, δ isoform; type: biochemical; settings: 20 nM kinase, 3 mM ATP, 500 uM diC8-PtdInsP; read-out: Promega δ PI3K IC50
Sequence of human Class I PI3 kinase δ (O00329 whole entry, canonical isoform): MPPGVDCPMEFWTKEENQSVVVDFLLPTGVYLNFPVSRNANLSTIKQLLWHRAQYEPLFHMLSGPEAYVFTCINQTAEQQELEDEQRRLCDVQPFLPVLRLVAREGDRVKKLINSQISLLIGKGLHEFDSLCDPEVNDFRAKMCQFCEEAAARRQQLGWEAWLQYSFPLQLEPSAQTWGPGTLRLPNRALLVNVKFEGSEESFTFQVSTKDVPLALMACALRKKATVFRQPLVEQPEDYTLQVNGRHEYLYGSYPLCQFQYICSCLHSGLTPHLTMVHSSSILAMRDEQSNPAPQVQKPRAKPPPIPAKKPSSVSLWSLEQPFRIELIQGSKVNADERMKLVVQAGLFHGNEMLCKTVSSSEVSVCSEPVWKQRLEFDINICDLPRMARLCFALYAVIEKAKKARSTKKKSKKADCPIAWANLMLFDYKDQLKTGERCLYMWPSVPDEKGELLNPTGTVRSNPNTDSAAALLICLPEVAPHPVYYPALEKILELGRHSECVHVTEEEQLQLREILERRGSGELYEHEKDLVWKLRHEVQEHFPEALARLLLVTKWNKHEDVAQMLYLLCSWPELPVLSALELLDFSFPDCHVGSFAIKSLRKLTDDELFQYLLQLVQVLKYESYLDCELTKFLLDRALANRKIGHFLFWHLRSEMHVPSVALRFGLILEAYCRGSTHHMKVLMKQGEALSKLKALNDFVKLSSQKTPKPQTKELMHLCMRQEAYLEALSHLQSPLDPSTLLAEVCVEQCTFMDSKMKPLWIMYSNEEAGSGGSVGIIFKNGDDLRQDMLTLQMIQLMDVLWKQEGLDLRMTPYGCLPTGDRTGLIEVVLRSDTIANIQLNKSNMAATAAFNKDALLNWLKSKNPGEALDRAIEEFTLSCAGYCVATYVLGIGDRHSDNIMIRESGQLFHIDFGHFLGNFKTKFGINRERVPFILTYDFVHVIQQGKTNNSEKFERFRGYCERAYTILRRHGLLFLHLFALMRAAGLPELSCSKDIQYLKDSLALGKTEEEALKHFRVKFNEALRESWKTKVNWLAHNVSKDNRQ
Sequence of human Class I PI3 kinase δ (P27986 whole entry partner, canonical isoform): as the sequence (P27986 whole entry partner, looked up, canonical isoform) above
Description: as §1

[4] = target: human Class I PI3 kinase γ (Homo sapiens (Human), UniProt P48736); assay: PI3-Kinase Promega ADP-Glo Max assay, γ isoform; type: biochemical; settings: 40 nM kinase, 3 mM ATP, 500 uM diC8-PtdInsP; read-out: Promega γ PI3K IC50
Description: Promega ADP-Glo Max assay kit (Cat. No. V7002) was utilized to determine IC50 values for α, β, δ and γ isoforms of human Class I PI3 kinases (Millipore). Samples of kinase (20 nM α or δ, 40 nM β or γ isoform) were incubated with compound for 15 minutes at room temperature in reaction buffer (15 mM HEPES pH 7.4, 20 mM NaCl, 1 mM EGTA, 0.02% Tween 20, 10 mM MgCl2, 0.2 mg/mL bovine-γ-globulins) followed by addition of ATP/diC8-PtdInsP mixture to give final concentrations of 3 mM ATP and 500 uM diC8-PtdInsP. Reactions were incubated at room temperature for 2 hours followed by addition of 25 uL of stop solution. After a 40-minute incubation at room temperature, 50 uL of Promega detection mix was added followed by incubation for 1 hour at room temperature. Plates were then read on Envision plate reader in luminescence mode. Data was converted to % inhibition using the following equation below:
[formula] where S is the sample luminescence, Pos is a positive control without added PI3K, Neg is the negative control without added compound. Data was then plotted as % inhibition vs compound concentration.
Certain compounds provided herein were tested in PI3-Kinase Promega Assay using procedures as described above to determine IC50 values for α, β, δ and/or γ isoforms.

p110 δ (RAJI cells) = p110 δ (RAJI cells) (Homo sapiens (Human), UniProt O00329); assay: PI3K-δ selective cellular assay: phospho-AKT in anti-human IgM stimulated RAJI cells; type: cell-based; settings: serum-starved RAJI cells stimulated with anti-human IgM
Sequence of p110 δ (RAJI cells) (O00329 whole entry): as the sequence (O00329 whole entry, canonical isoform) above
Sequence of p110 δ (RAJI cells) (P27986 whole entry partner): as the sequence (P27986 whole entry partner, looked up, canonical isoform) above
Description: A compound's ability in selectively inhibiting PI3K-δ can be assessed using RAJI cells, i.e., B lymphocyte cells derived from lymphoma patients. Briefly, serum-starved RAJI cells are stimulated with anti-human IgM, thereby causing signaling through the B-cell receptors, as described in, for example, He et al., Leukemia Research (2009) 33: 798-802. B-cell receptor signaling is important for the activation, differentiation, and survival of B cells and certain B-cell derived cancers. Reduction of phospho-AKT is indicative of compounds that may inhibit B-cell proliferation and function in certain diseases. […] Certain compounds provided herein were tested in RAJI cell model using procedures as described above.

p110 γ (RAW264.7 cells) = p110 γ (RAW264.7 cells) (Mus musculus (Mouse), UniProt Q9JHG7); assay: PI3K-γ selective cellular assay: phospho-AKT in C5a stimulated RAW264.7 macrophages; type: cell-based; settings: serum-starved RAW264.7 cells stimulated with C5a
Sequence of p110 γ (RAW264.7 cells) (Q9JHG7 whole entry): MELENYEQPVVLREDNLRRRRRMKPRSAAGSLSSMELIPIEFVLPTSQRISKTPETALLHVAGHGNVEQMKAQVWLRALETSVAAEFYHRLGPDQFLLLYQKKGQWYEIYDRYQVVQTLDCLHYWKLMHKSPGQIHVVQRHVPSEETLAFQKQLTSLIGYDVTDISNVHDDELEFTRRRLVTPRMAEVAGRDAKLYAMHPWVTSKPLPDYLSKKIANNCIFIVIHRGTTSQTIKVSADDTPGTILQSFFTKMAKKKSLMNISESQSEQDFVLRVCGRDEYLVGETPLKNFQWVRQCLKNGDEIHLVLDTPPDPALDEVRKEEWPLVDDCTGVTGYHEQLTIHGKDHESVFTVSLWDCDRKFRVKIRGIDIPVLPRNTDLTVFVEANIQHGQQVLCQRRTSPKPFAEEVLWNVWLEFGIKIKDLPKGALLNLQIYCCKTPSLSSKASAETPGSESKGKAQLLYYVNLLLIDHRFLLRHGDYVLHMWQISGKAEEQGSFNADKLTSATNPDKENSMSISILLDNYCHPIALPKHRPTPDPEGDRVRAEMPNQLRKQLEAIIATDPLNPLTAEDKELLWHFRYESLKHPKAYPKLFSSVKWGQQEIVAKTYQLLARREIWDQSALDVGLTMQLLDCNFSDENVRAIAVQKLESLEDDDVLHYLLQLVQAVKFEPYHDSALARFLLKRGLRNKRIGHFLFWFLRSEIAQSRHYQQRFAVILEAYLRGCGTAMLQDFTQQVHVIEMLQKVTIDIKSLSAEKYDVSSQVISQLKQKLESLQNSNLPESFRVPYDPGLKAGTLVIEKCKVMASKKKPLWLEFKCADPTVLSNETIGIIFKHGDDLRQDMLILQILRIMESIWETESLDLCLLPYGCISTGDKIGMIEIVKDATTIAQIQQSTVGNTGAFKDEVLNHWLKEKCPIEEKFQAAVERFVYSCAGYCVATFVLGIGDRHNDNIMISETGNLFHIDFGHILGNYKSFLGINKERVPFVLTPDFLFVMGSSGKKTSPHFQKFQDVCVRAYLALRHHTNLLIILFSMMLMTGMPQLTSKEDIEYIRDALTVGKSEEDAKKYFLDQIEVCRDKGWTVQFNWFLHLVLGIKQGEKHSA
Description: Certain compounds provided herein were tested in RAW 264.7 cell model using procedures as described above.

Row | SMILES | IC50 [1] [nM] | IC50 [2] [nM] | IC50 [3] [nM] | IC50 [4] [nM] | IC50 (p110 δ (RAJI cells)) [nM] | IC50 (p110 γ (RAW264.7 cells)) [nM]
1 | C[C@H](NC(=O)c1c(N)nn2cccnc12)c1cc2cccc(Cl)c2c(=O)n1CCS(N)(=O)=O [Compound 19] | 1000 to 10000 | 100 to 500 | 1000 to 10000 | 10 to 100 | 10 to 100 | 10 to 100
2 | C[C@H](NC(=O)c1c(N)nn2cccnc12)c1cc2cccc(Cl)c2c(=O)n1CCc1nnn(C)n1 [Compound 56] | 1000 to 10000 | 500 to 1000 | 1000 to 10000 | 1000 to 10000 | 10 to 100 | 100 to 500
3 | C[C@H](NC(=O)c1c(N)nn2cccnc12)c1nc2ccc(Cl)cc2c(=O)n1-c1ccccc1 [Compound 88] | 1000 to 10000 | 1000 to 10000 | 1000 to 10000 | 1000 to 10000 | – | –
4 | C[C@H](NC(=O)c1c(N)nn2cccnc12)c1cc2cccc(Cl)c2c(=O)n1Cc1nnn[nH]1 [Compound 17] | 1000 to 10000 | 1000 to 10000 | 1000 to 10000 | 100 to 500 | 1000 to 10000 | 500 to 1000
5 | C[C@H](NC(=O)c1c(N)nn2cccnc12)c1cc2cccc(-c3cnn(CC#N)c3)c2c(=O)n1-c1ccccc1 [Compound 48] | 1000 to 10000 | 1000 to 10000 | 1000 to 10000 | 100 to 500 | 100 to 500 | 10 to 100
6 | Cc1cccc2c(=O)n(-c3ccccc3)c([C@H](C)NC(=O)c3c(N)nn4cccnc34)nc12 [Compound 92] | 1000 to 10000 | 1000 to 10000 | 1000 to 10000 | 1000 to 10000 | 100 to 500 | 100 to 500
7 | C[C@H](NC(=O)c1c(N)nn2cccnc12)c1cc2cccc(Cl)c2c(=O)n1-c1ccccc1NS(C)(=O)=O [Compound 78] | 1000 to 10000 | 1000 to 10000 | 1000 to 10000 | 100 to 500 | 100 to 500 | 10 to 100
8 | CCS(=O)(=O)NCCn1c([C@H](C)NC(=O)c2c(N)nn3cccnc23)cc2cccc(Cl)c2c1=O [Compound 61] | 1000 to 10000 | 100 to 500 | 100 to 500 | 10 to 100 | 10 to 100 | 100 to 500
9 | C[C@H](NC(=O)c1nccnc1N)c1cc2cccc(C(F)(F)F)c2c(=O)n1-c1ccccc1 [Compound 52] | 1000 to 10000 | 1000 to 10000 | 500 to 1000 | 500 to 1000 | 10 to 100 | 10 to 100
10 | C[C@H](NC(=O)c1c(N)nn2cccnc12)c1cc2cccc(CCc3cnn(C)c3)c2c(=O)n1-c1ccccc1 [Compound 66] | – | – | – | 500 to 1000 | 10 to 100 | 1 to 10
11 | CCn1cc(-c2cccc3cc([C@H](C)NC(=O)c4c(N)nn5cccnc45)n(-c4ccccc4)c(=O)c23)cn1 [Compound 5] | 1000 to 10000 | 1000 to 10000 | 1000 to 10000 | 100 to 500 | 100 to 500 | 10 to 100
12 | C[C@H](NC(=O)c1c(N)nn2cccnc12)c1cc2cccc(Cl)c2c(=O)n1-c1ccc(NS(C)(=O)=O)cc1 [Compound 81] | 1000 to 10000 | 500 to 1000 | 1000 to 10000 | 1000 to 10000 | 100 to 500 | 1000 to 10000
13 | C[C@H](NC(=O)c1c(N)nn2cccnc12)c1nc2ccccc2c(=O)n1-c1ccccc1 [Compound 95] | 1000 to 10000 | 1000 to 10000 | 500 to 1000 | 100 to 500 | 10 to 100 | 10 to 100
14 | COc1ccccc1-n1c([C@H](C)NC(=O)c2c(N)nn3cccnc23)cc2cccc(Cl)c2c1=O [Compound 85] | 1000 to 10000 | 500 to 1000 | 500 to 1000 | 100 to 500 | 100 to 500 | 10 to 100
15 | C[C@H](NC(=O)c1c(N)nn2cccnc12)c1cc2cccc(Cl)c2c(=O)n1-c1cccc(NS(C)(=O)=O)c1 [Compound 79] | 1000 to 10000 | 100 to 500 | 500 to 1000 | 100 to 500 | 10 to 100 | 100 to 500
16 | C[C@H](NC(=O)c1c(N)nn2cccnc12)c1cc2cccc(Cl)c2c(=O)n1CCCS(C)(=O)=O [Compound 57] | 1000 to 10000 | 100 to 500 | 1000 to 10000 | 100 to 500 | 100 to 500 | 100 to 500
17 | C[C@H](NC(=O)c1c(N)nn2cccnc12)c1cc2cccc(Cl)c2c(=O)n1CCCNS(C)(=O)=O [Compound 53] | 500 to 1000 | 10 to 100 | 100 to 500 | 10 to 100 | 1 to 10 | 100 to 500
18 | C[C@H](NC(=O)c1c(N)nn2cccnc12)c1nc2cccc(N3CCOCC3)c2c(=O)n1-c1ccccc1 [Compound 90] | 1000 to 10000 | 1000 to 10000 | 1000 to 10000 | 1000 to 10000 | 1000 to 10000 | 500 to 1000
19 | C[C@H](NC(=O)c1c(N)nn2cccnc12)c1cc2cccc(Cl)c2c(=O)n1-c1cccc(O)c1 [Compound 69] | 1000 to 10000 | 10 to 100 | 100 to 500 | 10 to 100 | 1 to 10 | 10 to 100
20 | C[C@H](NC(=O)c1c(N)nn2cccnc12)c1cc2cccc(OCC(F)(F)F)c2c(=O)n1-c1ccccc1 [Compound 86] | 1000 to 10000 | 1000 to 10000 | 1000 to 10000 | 1000 to 10000 | 1000 to 10000 | 100 to 500
21 | C[C@H](NC(=O)c1nccnc1N)c1oc2ccc(F)cc2c(=O)c1-c1ccccc1 [Compound 97] | 1000 to 10000 | 1000 to 10000 | 1000 to 10000 | 1000 to 10000 | – | –
22 | CC(C)C(=O)Cc1cccc2cc([C@H](C)NC(=O)c3c(N)nn4cccnc34)n(-c3ccccc3)c(=O)c12 [Compound 65] | 1000 to 10000 | 1000 to 10000 | 1000 to 10000 | 1000 to 10000 | 100 to 500 | 10 to 100
23 | C[C@H](NC(=O)c1nc(C2CC2)cnc1N)c1cc2cccc(Cl)c2c(=O)n1-c1ccccc1 [Compound 3] | 1000 to 10000 | 1000 to 10000 | 1000 to 10000 | 1000 to 10000 | – | –
24 | C[C@H](NC(=O)c1c(N)nn2cccnc12)c1cc2cccc(Cl)c2c(=O)n1CCc1c[nH]cn1 [Compound 21] | 1000 to 10000 | 100 to 500 | 1000 to 10000 | 1000 to 10000 | – | –
